Source: ChEMBL document CHEMBL3853298, “Total synthesis and in vitro bioevaluation of clavaminols A, C, H & deacetyl clavaminol H as potential chemotherapeutic and antibiofilm agents” (Eur J Med Chem, 2016)

How the values were obtained:
Format in all cases: functional, cell-based
[1] = Cytotoxicity against human SKOV3 cells assessed as cell growth inhibition by MTT assay; details: SK-OV-3
[2] = Cytotoxicity against human DU145 cells assessed as cell growth inhibition by MTT assay; details: DU-145
[3] = Cytotoxicity against human HeLa cells assessed as cell growth inhibition by MTT assay
[4] = Cytotoxicity against human MCF7 cells assessed as cell growth inhibition by MTT assay

## CCCCCCCCC[C@H](O)[C@@H](C)NC(C)=O [CLAVAMINOL C]
[1]
  IC50: 14.1 µM
[2]
  IC50: 18.3 µM
[3]
  IC50: 18.5 µM
[4]
  IC50: 16.3 µM
